Laboratory results published in patent publication US20260199242A1, “PROCESSES FOR MAKING CYCLIC LIPID IMPLANTS FOR INTRAOCULAR USE” (Allergan, Inc., priority 2006, published 2026).

How the values were obtained:
[1] = Potency of bimatoprost from melt-extruded implants as percent of label strength by HPLC (FIG. 1); format: physicochemical
Experimental: Typical extrusion temperatures for a PLGA implant are from about 85° C. to about 110° C. […] As shown by FIG. 1, five different formulation bimatoprost containing sustained release implants or drug delivery systems (“DDS”) were made. Proceeding from left to right to left along the x axis of FIG. 1 these five formulations were: The theoretical maximum potency of bimatoprost is by definition equal to the label strength (“LS”) of the bimatoprost. For example, the label strength of a one milligram implant which comprises 150 μg of bimatoprost is 150 μg. […] We determined the potency of the bimatoprost released from the implants made as a percent of their label strength using HPLC (high pressure liquid chromatography). Thus, the bimatoprost implants (each weighing about 1 mg) made were dissolved in 0.5 mL acetonitrile in a 10 mL volumetric flask and sonicated for 5 min. The flask was then filled to volume with diluent (72:18:10 water:acetonitrile:methanol); mixed well, and transferred to a HPLC vial for analysis. The HPLC analysis was performed using a Waters Alliance 2695 HPLC system, Waters Symmetry®C18 reverse-phase column 4.6 mm×75 mm, and a Waters 2487 UV detector. The conditions for analysis were flow rate of 1.5 mL/minute, UV wavelength of 210 nm, column temperature of 30° C. and mobile phase of 72:18:10 (water:acetonitrile:methanol, v/v/v) with 0.03% (w/v) trifluoroacetic acid. The injection volume of samples and standards assayed was 75 uL with a cycle time of 45 min.

[2] = lower temperature and faster rate in a low pH environment; cited from earlier work
[3] = cited from earlier work
[4] = test system: patients with age-related macular degeneration (ARMD); settings: infusion; cited from earlier work

| potency of the bimatoprost released from the DDS (percent of label strength) ([1]; DDS made by melt extrusion carried out at 57° C.) | potency of the bimatoprost released from the DDS (percent of label strength) ([1]; DDS made by melt extrusion carried out at 85° C.) | bimatoprost therapeutically inactive (loss of potency) ([1]; extrusion temperature of about 80° C. or higher) [%] | Structure (SMILES) | temperature above which bimatoprost can degrade if heated [2] | solubility in water [3] | visual acuity [4] |
| --- | --- | --- | --- | --- | --- | --- |
| more than 90% | about 40% | ≤ 50 | CCNC(=O)CCC/C=C\C[C@@H]1[C@@H](/C=C/[C@@H](O)CCc2ccccc2)[C@H](O)C[C@@H]1O [Bimatoprost] | greater than 65 °C | slightly soluble | – |
| – | – | – | CCCCC[C@H](O)/C=C/[C@H]1[C@H](O)CC(=O)[C@@H]1CCCCCCC(=O)O [prostaglandin E1] | – | – | improvement in visual acuity |
